This is an account of results in patent publication US11066405B2, “Bicyclic compounds and their use in the treatment of cancer” (Tempest Therapeutics, Inc., priority 2017, dated 2021).

pIC50: −log10 of the molar value.

In the test the target is T1, EP4 (Homo sapiens, UniProt P35408).
T1 construct: host or cells: HEK293, stably transfected; also expresses a promiscuous G protein and a clytin variant
T1 sequence (P35408 whole entry): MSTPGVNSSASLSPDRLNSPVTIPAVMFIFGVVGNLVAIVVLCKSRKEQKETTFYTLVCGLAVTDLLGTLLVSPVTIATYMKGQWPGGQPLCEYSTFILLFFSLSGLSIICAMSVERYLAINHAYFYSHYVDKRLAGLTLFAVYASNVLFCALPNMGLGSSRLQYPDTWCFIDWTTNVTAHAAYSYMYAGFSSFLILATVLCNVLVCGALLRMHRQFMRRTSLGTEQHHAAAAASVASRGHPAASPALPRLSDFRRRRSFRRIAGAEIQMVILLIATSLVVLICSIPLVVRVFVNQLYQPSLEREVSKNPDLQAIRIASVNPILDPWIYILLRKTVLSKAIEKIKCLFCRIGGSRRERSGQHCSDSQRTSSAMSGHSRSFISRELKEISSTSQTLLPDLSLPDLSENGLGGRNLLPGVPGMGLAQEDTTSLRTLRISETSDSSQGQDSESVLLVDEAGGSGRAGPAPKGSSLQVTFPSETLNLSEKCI
Description: EP4 Ca2+-flux assay (functional calcium flux assay, stably transfected HEK293 cells). The test is classed as cell-based. Particulars: HEK293 cells stably transfected with EP4; ligand PGE2 10 nM; luminescence readout. As to the method:
The compounds in the present disclosure were tested in a functional calcium flux assay using stably transfected HEK293 cells. Cells transfected with EP1, EP2, EP3 and EP4 were purchased from Eurofins Discovery Services (St. Charles, Mo.). Each receptor subtype has an additional promiscuous G protein added in order to couple to the calcium signaling pathway. The parental cell line used also expresses a novel variant of clytin, a calcium-activated photo-protein, to enable sensitive luminescent detection.
Cells were plated at 50,000 cells per well in black, clear bottom 96-well plates. The plated cells were allowed to sit at room temperature for 30 min prior to transferring to a humidified, 37° C., 5% CO2 incubator for 18-24 h. Assay buffer (HBSS with 20 mM HEPES) and loading buffer (assay buffer plus 10 μM Coelenterazine) were prepared on the day of the assay. Assays were performed by aspirating media from the assay plate and washing once with assay buffer, then replacing with loading buffer and allowing the cells to incubate for 1.5 h at room temperature. Compounds were prepared in assay buffer at a 3× final concentration in non-binding plates. Compounds were added to the cell plates and incubated for 30 min at room temperature. The prostanoid receptor ligand PGE2 was prepared at a 4× dilution ratio for a final concentration of 10 nM. Plates were run on a Flexstation™ using a 100 ms integration luminescence protocol for a total of 60 sec with ligand addition at 15 sec. Data were obtained from relative light units as measured by area under the curve.
A general note: Calcium flux is commonly read through the fluorescence of an indicator in the cells.
By pIC50 is commonly meant the IC50 on a negative log10 scale, so that one unit is a factor of ten. Regarding `O=C(NC12CC(Cc3nnn[nH]3)(C1)C2)c1cccc2ccn(Cc3ccc(C(F)(F)F)cc3)c12` [Example 18, N-(3-((1H-tetrazol-5-yl)methyl)bicyclo[1.1.1]pentan-1-yl)-1-(4-(trifluoromethyl)benzyl)-1H-indole-7-carboxamide], the negative logarithm of the IC50 (pIC50) is 8.82. In the case of `O=C(O)C[C@]12C[C@](NC(=O)c3ccc(F)c4ccn(Cc5ccc(C(F)F)cc5)c34)(C1)C2` [Example 32, 2-(3-(1-(4-(difluoromethyl)benzyl)-4-fluoro-1H-indole-7-carboxamido)bicyclopentan-1-yl)acetic Acid] it was 10.00; in that of `O=C(NC1CC2(C1)CC(C(=O)O)C2)c1cccc2cnn(Cc3ccc(C(F)(F)F)cc3)c12` (racemic) [Example 12, rac-6-(1-(4-(trifluoromethyl)benzyl)-1H-indazole-7-carboxamido)spiro[3.3]heptane-2-carboxylic Acid], 8.57. Regarding `O=C(NCC12CC(NC(=O)c3cccc4ccn(Cc5ccc(C(F)(F)F)cc5)c34)(C1)C2)NS(=O)(=O)c1ccccc1` [Example 17, N-(3-((3-(phenylsulfonyl)ureido)methyl)bicyclo[1.1.1]pentan-1-yl)-1-(4-(trifluoromethyl)benzyl)-1H-indole-7-carboxamide], the negative-log IC50 (pIC50) is 6.89. As for `O=C(CC12CC(NC(=O)c3cccc4ccn(Cc5ccc(C(F)(F)F)cc5)c34)(C1)C2)NS(=O)(=O)c1ccccc1` [Example 16, N-(3-(2-oxo-2-(phenylsulfonamido)ethyl)bicyclo[1.1.1]pentan-1-yl)-1-(4-(trifluoromethyl)benzyl)-1H-indole-7-carboxamide], the negative-log IC50 (pIC50) was 6.85. As for `O=C(O)CC12CCC(NC(=O)c3cccc4ccn(Cc5ccc(C(F)F)cc5)c34)(C1)C2` [Example 26, 2-(4-(1-(4-(difluoromethyl)benzyl)-1H-indole-7-carboxamido)bicyclo[2.1.1]hexan-1-yl)acetic Acid], the figure is 8.42. As for `[2H]C([2H])(c1ccc(C(F)(F)F)cc1)n1ccc2cccc(C(=O)NC34CC(CC(=O)O)(C3)C4)c21` [Example 7, 2-(3-(1-((4-(trifluoromethyl)phenyl)methyl-d2)-1H-indole-7-carboxamido)bicyclo[1.1.1]pentan-1-yl)acetic Acid], the figure is 8.70.
